Reference: EP2100602A1, “Method and compositions suitable for treatment of wounds” (QuoNova Europe GmbH, priority 2008, dated 2009)

Test system: Pseudomonas aeruginosa
Assay: Porcine second degree burn wound model infected with Pseudomonas aeruginosa; flush culture (planktonic) and scrub culture (biofilm) counts
Format: in vivo
Details: pig burn wounds; for reduction of counts of planktonic P. aeruginosa: ointment without SSD; for reduction of biofilm bacteria: treatment within 20 minutes of inoculation, compared to the vehicle control, SSD not printed for these labels
[1] = used within 20 minutes of wound inoculation

Compound | reduction of counts of planktonic P. aeruginosa (used on established biofilms) | reduction of counts of planktonic P. aeruginosa [1] | reduction of biofilm bacteria [Log] | reduction of biofilm P. aeruginosa (without SSD, used within 20 minutes) [Log]
Cn1nc(C(C)(C)C)cc1C(=O)NNC(=O)c1ccc(Cl)s1 [Compound 1] | largest reduction | largest reduction | 2 | 1
CCCCCCCCCC(=O)CC(=O)N(C)c1ccc(F)cc1 [Compound 3] | – | lower counts | – | –
CCCCCCCCCC(=O)CC(=O)Nc1cc(C)ns1 [Compound 2] | – | lower counts | 1.5 | –
